{
  "source": "patent US8859580B2",
  "about": "(Boehringer Ingelheim International GmbH, priority 2007, dated 2014)",
  "data": [
    {"target": "T1, 11β-HSD1 (Homo sapiens, UniProt P28845)", "T1 construct": "detecting cortisol generated from cortisterone by human liver microsomes; from tissue; host or cells: human liver microsomes", "T1 sequence (P28845 whole entry)": "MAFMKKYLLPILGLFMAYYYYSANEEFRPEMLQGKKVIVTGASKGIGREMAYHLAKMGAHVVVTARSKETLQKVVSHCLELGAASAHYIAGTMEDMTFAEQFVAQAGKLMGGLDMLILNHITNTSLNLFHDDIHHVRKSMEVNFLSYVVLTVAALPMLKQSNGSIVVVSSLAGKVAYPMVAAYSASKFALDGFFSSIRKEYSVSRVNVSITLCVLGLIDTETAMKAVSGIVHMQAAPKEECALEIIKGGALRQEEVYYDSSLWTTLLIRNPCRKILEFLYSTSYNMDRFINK", "experiment": "In vitro inhibition of 11β-HSD1, HTRF detection of cortisol generated from cortisone by human liver microsomes", "format": "biochemical", "details": "11β-HSD IC50 (nM), 1 hour at 37° C., pH 6.0, NADPH 200 μM, cortisone 80 nM, inhibition relative to carbenoxolone signal", "description": "Cortisol generated in the reaction is then detected with a competitive immunoassay, involving two HTRF conjugates: cortisol linked to XL665 and anti-cortisol antibody labeled with Europium cryptate. The incubation period for detection reaction was typically 2 hours. […] The ratio of the two emission signals is then calculated (Em665*10000/Em615). […] Each assay also contained a calibration curve with cortisol to transform the fluorescent data into cortisol concentrations. Percent inhibition of each compound was determined relative to the carbenoxolone signal and IC50 curves were generated.", "units": {"IC50": "nM"}, "values": [
      {"smiles": "CC(O)c1ccc2c(c1)C[C@H]1N(C(=O)c3ccc4nc[nH]c4c3)CC[C@]2(C)C1(C)C", "note": "(stereo partly drawn) [Example 209, (3H-Benzoimidazol-5-yl)-[(2R,6S)-9-(1-hydroxy-ethyl)-6,11,11-trimethyl-1,2,5,6-tetrahydro-4H-2,6-methano-benzo[d]azocin-3-yl]-methanone]", "IC50": 40},
      {"smiles": "CC(O)(c1ccc(C(=O)N2CC[C@@]3(C)c4cccc(O)c4C[C@@H]2C3(C)C)cc1)C(F)(F)F", "note": "(stereo partly drawn) [Example 16, [(2R,6S)-10-Hydroxy-6,11,11-trimethyl-1,2,5,6-tetrahydro-4H-2,6-methano-benzo[d]azocin-3-yl]-[4-(2,2,2-trifluoro-1-hydroxy-1-methyl-ethyl)-phenyl]-methanone]", "IC50": 360},
      {"smiles": "CC1(C)[C@H]2Cc3ccc(S(N)(=O)=O)cc3[C@]1(C)CCN2C(=O)c1ccc2nc[nH]c2c1", "note": "[Example 203, (2R,6S)-3-(3H-Benzoimidazole-5-carbonyl)-6,11,11-trimethyl-1,2,3,4,5,6-hexahydro-2,6-methano-benzo[d]azocine-8-sulfonic acid amide]", "IC50": 125},
      {"smiles": "CC1(C)[C@H]2Cc3ccccc3[C@]1(C)CCN2C(=O)c1ccc(S(N)(=O)=O)cc1", "note": "[Example 342, 4-[(2R,6S)-6,11,11-Trimethyl-1,2,5,6-tetrahydro-4H-2,6-methano-benzo[d]azocine-3-carbonyl]-benzenesulfonamide]", "IC50": 373},
      {"smiles": "CC1(C)[C@H]2Cc3c(ccc4[nH]cnc34)[C@]1(C)CCN2C(=O)c1ccc2nc[nH]c2c1", "note": "[Example 191, (3H-Benzoimidazol-5-yl)-[(5R,9S)-4,5,6,7,8,9-hexahydro-2,10,12,12-trimethyl-5,9-methano-1H-imidazo[5,4-j][3]benzazocin-6-yl]-methanone]", "IC50": 571},
      {"smiles": "CC1(C)C2Cc3ccccc3C1(O)CCN2C(=O)c1ccc2nc[nH]c2c1", "note": "(centres unmarked) [Example 57, (3H-Benzoimidazol-5-yl)-(6-hydroxy-11,11-dimethyl-1,2,5,6-tetrahydro-4H-2,6-methano-benzo[d]azocin-3-yl)-methanone]", "IC50": 137},
      {"smiles": "CC1(C)[C@H]2Cc3c(C#N)cccc3[C@]1(C)CCN2C(=O)c1ccc2nc[nH]c2c1", "note": "[Example 93, (2R,6S)-3-(3H-Benzoimidazole-5-carbonyl)-6,11,11-trimethyl-1,2,3,4,5,6-hexahydro-2,6-methano-benzo[d]azocine-10-carbonitrile]", "IC50": 2060},
      {"smiles": "CC1(C)[C@H]2Cc3ccc(S(C)(=O)=O)cc3[C@]1(C)CCN2C(=O)c1ccc2nc[nH]c2c1", "note": "[Example 233, (3H-Benzoimidazol-5-yl)-[(2R,6S)-8-methanesulfonyl-6,11,11-trimethyl-1,2,5,6-tetrahydro-4H-2,6-methano-benzo[d]azocin-3-yl)-methanone]", "IC50": 144},
      {"smiles": "Cc1nc2c3c(ccc2o1)C[C@@H]1[C@@H](C)[C@@]3(C)CCN1C(=O)c1ccc2nc[nH]c2c1", "note": "[Example 300, (3H-Benzoimidazol-5-yl)-[(7R,11R,12S)-6,7,8,9,10,11-hexahydro-2,11,12-trimethyl-6,10-methano-oxazolo[4,5-h][3]benzazocin-8-yl]-methanone]", "IC50": 115},
      {"smiles": "CC12CCN(C(=O)c3ccc4nc[nH]c4c3)C(Cc3ccc(O)cc31)C2(C)C", "note": "(centres unmarked) [Example 58, (3H-Benzoimidazol-5-yl)-(8-hydroxy-6,11,11-trimethyl-1,2,5,6-tetrahydro-4H-2,6-methano-benzo[d]azocin-3-yl)-methanone]", "IC50": 62},
      {"smiles": "CC(O)c1cccc(C(=O)N2CC[C@@]3(C)c4ccccc4C[C@@H]2C3(C)C)c1", "note": "(stereo partly drawn) [Example 314, [3-(1-Hydroxy-ethyl)-phenyl]-[(2R,6S)-6,11,11-trimethyl-1,2,5,6-tetrahydro-4H-2,6-methano-benzo[d]azocin-3-yl]-methanone]", "IC50": 162},
      {"smiles": "C[C@@H]1[C@H]2Cc3ccc(O)cc3[C@]1(C)CCN2C(=O)c1ccc2nc[nH]c2c1", "note": "[Example 52, (3H-Benzoimidazol-5-yl)-[(2R,6R,11S)-8-hydroxy-6,11-dimethyl-1,2,5,6-tetrahydro-4H-2,6-methano-benzo[d]azocin-3-yl]-methanone]", "IC50": 101},
      {"smiles": "Cc1cnc2cc3c(cc2n1)[C@]1(C)CCN(C(=O)c2ccc4nc[nH]c4c2)[C@H](C3)C1(C)C", "note": "[Example 255, (3H-Benzoimidazol-5-yl)-[(7R,11S)-6,7,8,9,10,11-hexahydro-2,11,13,13-tetramethyl-7,11-methano-pyrazino[2,3-i][3]benzazocin-8-yl]-methanone]", "IC50": 742},
      {"smiles": "CC1(C)[C@H]2Cc3cc(C#N)ccc3[C@]1(C)CCN2C(=O)c1ccc2nc[nH]c2c1", "note": "[Example 206, (2R,6S)-3-(3H-Benzoimidazole-5-carbonyl)-6,11,11-trimethyl-1,2,3,4,5,6-hexahydro-2,6-methano-benzo[d]azocine-9-carbonitrile]", "IC50": 47},
      {"smiles": "CC1(C)[C@H]2Cc3ccccc3[C@]1(C)CCN2C(=O)c1ccc(N)nc1", "note": "[Example 304, (6-Amino-pyridin-3-yl)-[(2R,6S)-6,11,11-trimethyl-1,2,5,6-tetrahydro-4H-2,6-methano-benzo[d]azocin-3-yl)-methanone]", "IC50": 251},
      {"smiles": "CC1(C)[C@H]2Cc3c(O)cccc3[C@]1(C)CCN2C(=O)c1cccc(C#N)c1", "note": "[Example 10, 3-[(2R,6S)-10-Hydroxy-6,11,11-trimethyl-1,2,5,6-tetrahydro-4H-2,6-methano-benzo[d]azocine-3-carbonyl]-benzonitrile]", "IC50": 1780},
      {"smiles": "CC12CCN(C(=O)c3ccc4nc[nH]c4c3)C(Cc3cc(C(=O)O)ccc31)C2(C)C", "note": "(centres unmarked) [Example 154, 3-(3H-Benzoimidazole-5-carbonyl)-6,11,11-trimethyl-1,2,3,4,5,6-hexahydro-2,6-methano-benzo[d]azocine-9-carboxylic acid]", "IC50": 1660},
      {"smiles": "CC1(C)[C@H]2Cc3c(O)cccc3[C@]1(C)CCN2C(=O)c1cc(-c2ccccc2)n[nH]1", "note": "[Example 221, [(2R,6S)-10-Hydroxy-6,11,11-trimethyl-1,2,5,6-tetrahydro-4H-2,6-methano-benzo[d]azocin-3-yl]-(5-phenyl-2H-pyrazol-3-yl)-methanone]", "IC50": 2430},
      {"smiles": "CC1(C)[C@H]2Cc3c(O)cccc3[C@]1(C)CCN2C(=O)c1ccc(C(=O)N2CCOCC2)cc1", "note": "[Example 134, [(2R,6S)-10-Hydroxy-6,11,11-trimethyl-1,2,5,6-tetrahydro-4H-2,6-methano-benzo[d]azocin-3-yl]-[4-(morpholine-4-carbonyl)-phenyl]-methanone]", "IC50": 1230},
      {"smiles": "C[C@@H]1[C@H]2Cc3ccc(-c4ncon4)cc3[C@]1(C)CCN2C(=O)c1ccc2nc[nH]c2c1", "note": "[Example 232, (3H-Benzoimidazol-5-yl)-[(2R,6R,11S)-6,11-dimethyl-8-[1,2,4]oxadiazol-3-yl-1,2,5,6-tetrahydro-4H-2,6-methano-benzo[d]azocin-3-yl]-methanone]", "IC50": 132},
      {"smiles": "CC(=O)c1cccc(C(=O)N2CC[C@@]3(C)c4ccccc4C[C@@H]2C3(C)C)c1", "note": "[Example 307, 1-{3-[(2R,6S)-6,11,11-Trimethyl-1,2,5,6-tetrahydro-4H-2,6-methano-benzo[d]azocine-3-carbonyl]-phenyl}-ethanone]", "IC50": 979},
      {"smiles": "CC1(C)[C@H]2Cc3c(O)cccc3[C@]1(C)CCN2C(=O)c1c[nH]c2ccc(Cl)cc12", "note": "[Example 196, (5-Chloro-1H-indol-3-yl)-[(2R,6S)-10-hydroxy-6,11,11-trimethyl-1,2,5,6-tetrahydro-4H-2,6-methano-benzo[d]azocin-3-yl]-methanone]", "IC50": 781},
      {"smiles": "CC12CCN(C(=O)c3ccc4nc[nH]c4c3)C(Cc3cc(F)ccc31)C2(C)C", "note": "(centres unmarked) [Example 145, (3H-Benzoimidazol-5-yl)-(9-fluoro-6,11,11-trimethyl-1,2,5,6-tetrahydro-4H-2,6-methano-benzo[d]azocin-3-yl)-methanone]", "IC50": 108},
      {"smiles": "CC1(C)[C@H]2Cc3c(O)cccc3[C@]1(C)CCN2C(=O)c1ccccc1C#N", "note": "[Example 8, 2-[(2R,6S)-10-Hydroxy-6,11,11-trimethyl-1,2,5,6-tetrahydro-4H-2,6-methano-benzo[d]azocine-3-carbonyl]-benzonitrile]", "IC50": 3360},
      {"smiles": "CC12CCN(C(=O)c3ccc4nc[nH]c4c3)C(Cc3ccc(Cl)cc31)C2(C)C", "note": "(centres unmarked) [Example 75, (3H-Benzoimidazol-5-yl)-(8-chloro-6,11,11-trimethyl-1,2,5,6-tetrahydro-4H-2,6-methano-benzo[d]azocin-3-yl)-methanone]", "IC50": 395},
      {"smiles": "COc1c(F)cc(C(=O)N2CC[C@@]3(C)c4ccccc4C[C@@H]2C3(C)C)cc1F", "note": "[Example 331, (3,5-Difluoro-4-methoxy-phenyl)-[(2R,6S)-6,11,11-trimethyl-1,2,5,6-tetrahydro-4H-2,6-methano-benzo[d]azocin-3-yl]-methanone]", "IC50": 439},
      {"smiles": "COc1ccc2c(c1NS(C)(=O)=O)[C@]1(C)CCN(C(=O)c3ccc4nc[nH]c4c3)[C@H](C2)[C@H]1C", "note": "[Example 268, N-[(2R,6R,11S)-3-(3H-Benzoimidazole-5-carbonyl)-8-methoxy-6,11-dimethyl-1,2,3,4,5,6-hexahydro-2,6-methano-benzo[d]azocin-7-yl]-methanesulfonamide]", "IC50": 931},
      {"smiles": "C[C@@H]1CN(C(=O)c2ccc3nc[nH]c3c2)[C@@H]2Cc3ccccc3[C@@]1(C)C2", "note": "(racemic) [Example 294, (3H-Benzoimidazol-5-yl)-(5,6-dimethyl-1,2,5,6-tetrahydro-4H-2,6-methano-benzo[d]azocin-3-yl)-methanone]", "IC50": 146},
      {"smiles": "CC(=O)NCc1ccc(C(=O)N2CC[C@@]3(C)c4cccc(O)c4C[C@@H]2C3(C)C)cc1", "note": "[Example 132, N-{4-[(2R,6S)-10-Hydroxy-6,11,11-trimethyl-1,2,5,6-tetrahydro-4H-2,6-methano-benzo[d]azocine-3-carbonyl]-benzyl}-acetamide]", "IC50": 958}
    ]}
  ]
}
